Experimental data as given in patent US12139488B2, “Pyrido[3,2-d]pyrimidine compounds uses thereof for treating a proliferative disease” (Universite de Montreal, priority 2021, dated 2024).
pEC50, pIC50: −log10 of the molar value. Where two headings read alike, the source gives them in different places.

Key:
Format in all cases: cell-based, human
[1] = system: pERK in SW480 cells (KRAS G12D); experiment: Phospho-ERK inhibition (AlphaLISA), SW480; settings: for SW480 pERK % Ymin: value in parentheses
Procedure, shortened: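 pERK1/2 (Thr202/Tyr204) AlphaLISA, 1 h cpd, 10 conc. 10 μM→0.33 nM, 0.5% DMSO, RPMI-1640 + 5% FBS. Trametinib = 100%, DMSO = 0%. IC50, 4-param fit.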

IPC298 cells (NRAS-Q61L) = experiment: Proliferation inhibition (CellTiter-Glo), IPC298; settings: IPC298, 3 days, read-out: IPC298 Prolif. EC50
Experimental: (§1) All cancer cell lines (A375, A101D, A2058, RKO, HT29 SK-MEL 30, IPC298, HepG2, HCT-116, Lovo, SWV620, SW480, NCI-H358, NCI-H2122, Calu-6, NCIH2087, NCIH1755, NCIH1666 and Mewo) were obtained from ATCC and cultured in RPMI-1640 medium (Gibco) supplemented with 5% heat inactivated fetal bovine serum (FBS, Wisent) at 37° C. under 5% CO2. Cells were maintained in T175 flasks (Greiner). They were passaged by removing the culture medium, washing once in 10 mL of room temperature Phosphate Buffered Saline (PBS; Wisent) and incubating at 37° C. with 2 mL of 0.05% Trypsin (Thermo-Fisher). Trypsin was then inactivated by adding complete growth medium and the cells were then replated in a T175 culture dish at the appropriate dilution. All cell lines were routinely tested for mycoplasma contamination. Tissue type and mutational status of each cell line can be found in Table B.
(§2) CellTiter-Glo® viability analysis was conducted on cells plated in 100 μL of complete RPMI-1640 growth medium in 96-well flat-bottomed white opaque plates (Greiner or Croning) at a density indicated in Table E (for each CCL, number of cells plated per well of a 96-well plate to perform the CellTiter-Glo® cell viability assay). The cell density in cells/cm^2 would correspond to cell number divided by the area of one well of a 96-well plate (0.32 cm^2). […]
(§3) After 3 days of incubation, the growth media were removed by aspiration and 60 μL of diluted CellTiter-Glo® reagent (10 μL CellTiter-Glo® reagent+50 μL of PBS) was added to each well. […] Luminescence signals were then acquired on a Synergy Neo2 plate reader (Biotek).
(§4) The effect of each compound dilution on the proliferation of cancer cell lines was expressed in % inhibition and calculated as follows. […]
(§5) The ability of each compound to inhibit proliferation was expressed as a EC50 value obtained by plotting the effect values for each data point of a dilution series and fitting the obtained curves using a log(agonist) versus response-variable slope (four parameters) function using GraphPadPrism (V7.0) or Dotmatics Screening Ultra platform.

Lovo cells (KRAS-G13D) = experiment: Proliferation inhibition (CellTiter-Glo), Lovo; settings: 3 days, read-out: Lovo Prolif. EC50
Experimental: as §1, §2, §3, §4, §5

SW480 cells (KRAS G12D) = experiment: Proliferation inhibition (CellTiter-Glo), SW480; settings: SW480, 3 days, read-out: SW480 Prolif. EC50
Experimental: as §1, §2, §3, §4, §5

[2] = system: pERK in Lovo cells (KRAS-G13D); experiment: Phospho-ERK inhibition (AlphaLISA), Lovo; settings: for Lovo pERK % Ymin: value in parentheses
Experimental: as §1
AlphaLISA® SureFire® Ultra™ p-ERK 1/2 (Thr202/Tyr204) analysis was conducted on cells plated in 100 μL of complete RPMI-1640 growth medium in 96-well flat-bottomed transparent dishes (Costar) at a density indicated in Table C. Cells were maintained overnight at 37° C. under 5% CO2 before treatment with compounds' dilution series for one hour. The cell density in cells/cm^2 corresponds to cell number divided by the area of one well of a 96-well plate ([…]).
In a dilution series 100 μL/well of test substance dilution prepared in complete RPMI-1640 growth media was added to the cells. The dilution series is selected so that ten concentrations cover a range from 10 μM to 0.33 nM. If necessary the initial concentration of 10 μM is increased to 100 μM or lowered to 1 μM (as in the case of A375 and H1666 cells, which are generally more sensitive to the compounds) and further dilution is carried out accordingly. The final concentration of DMSO in the assay is set at 0.5%.
After treatment, media was removed and cells were lysed in 50 μL of 1× AlphaScreen Ultra Lysis Buffer (Perkin Elmer). The AlphaLISA® SureFire® Ultra™ p-ERK 1/2 (Thr202/Tyr2O4) (PerkinElmer) reactions were performed with 5 μL of cell lysate according to the manufacturer's specifications in 384-well proxyplates (Perkin Elmer) followed by overnight incubation of the reactions at room temperature in a humidified chamber. After completion of the reactions, the signals were recorded on an EnVision plate reader (Perkin Elmer) using built in AlphaLISA® settings.
The effect of each compound dilution on the pERK signal was expressed in % inhibition and calculated as follows. An internal 100% inhibition control ([…] trametinib, cat #HY-10999; MedChem Express; CAS #871700-17-3) was included in each plate and used as a measure of pERK background. First, the value obtained for trametinib was subtracted from each data point. The average of DMSO (vehicle) controls (set as 0% inhibition) was established and used to calculate % inhibition: % inhibition=100*(1-((pERK signalcompound)/(pERK signalDMSO)))
as §5, with “pERK signal” for “proliferation”, “an IC50” for “a EC50”, “inhibition” for “effect”
When present, paradoxical pERK induction is inferred from the negative % inhibition values observed in the pERK IC50 curves of a compound.

RKO cells (BRAF V600E) = experiment: Proliferation inhibition (CellTiter-Glo), RKO; settings: 3 days, read-out: RKO Prolif. EC50
Experimental: as §1, §2, §3, §4, §5

Compound | pIC50 ([1]; Homo sapiens, SW480, Table D) | SW480 pERK % Ymin ([1]; SW480, Table D) [%] | pEC50 (IPC298 cells (NRAS-Q61L); Homo sapiens, IPC-298, 72 h) | pEC50 (Lovo cells (KRAS-G13D); Homo sapiens, 72 h) | pEC50 (SW480 cells (KRAS G12D); Homo sapiens, 72 h) | pIC50 ([2]; Homo sapiens, LoVo) | Lovo pERK % Ymin ([2]; Lovo) [%] | pEC50 (RKO cells (BRAF V600E); Homo sapiens, 72 h) | pIC50 ([1]; SW480, Table D) | SW480 pERK Ymin % ([1]; SW480 cells, Ymin in brackets) [%] | pIC50 ([1]; SW480 cells, class symbol before the bracket) | pEC50 (IPC298 cells (NRAS-Q61L)) | pEC50 (Lovo cells (KRAS-G13D)) | pEC50 (SW480 cells (KRAS G12D)) | pIC50 ([2]; Lovo) | pEC50 (RKO cells (BRAF V600E)) | pIC50 ([1]; SW480 cells, class symbol)
Cc1ccc2c(Nc3cccc(Cl)c3F)nccc2c1NC(=O)c1csc2c(N)ncnc12 [Belvarafenib, reference compound] | 6.52 to 7.52 | −100 | > 7.52 | > 7.52 | 5.52 to 6.52 | > 7.52 | −12 | > 7.52 | – | – | – | – | – | – | – | – | –
Nc1cccc2c1ncn2-c1ccc2ncnc(Nc3c(F)ccc(NS(=O)(=O)c4cccc(Cl)c4Cl)c3F)c2n1 [Example 99] | – | −7 | – | – | – | – | −15 | – | 6.52 to 7.52 | −0.3 | > 6.30 | > 7.52 | > 7.52 | 5.52 to 6.52 | 6.52 to 7.52 | > 7.52 | –
CC1(O)CCN(c2cccc3c2ncn3-c2ccc3ncnc(Nc4c(F)ccc(NS(=O)(=O)c5cccc(Cl)c5Cl)c4F)c3n2)CC1 [Example 524] | – | 0 | – | – | – | – | −5 | – | 6.52 to 7.52 | – | – | > 7.52 | > 7.52 | 5.52 to 6.52 | 6.52 to 7.52 | > 7.52 | > 6.30
